{"source": "paper PMC5591244", "about": "“Novel selective, potent naphthyl TRPM8 antagonists identified through a combined ligand- and structure-based virtual screening approach” (Scientific Reports, 2017)", "type_in_all_cases": "cell-based", "key": {"[1]": {"target": "T1, TRPM8 (Homo sapiens, UniProt Q7Z2W7)", "T1 construct": "expressed in transfected cells", "experiment": "Calcium mobilization assay (HTS and dose-response) on HEK-293/hTRPM8 cells", "details": "for IC50: calcium mobilization", "protocol": "All experiments were performed on HEK-293/hTRPM8 cells stably transfected with the human TRPM8 gene, except for site-directed mutagenesis analysis, which was performed on transient transfectants. In details, HEK-293 cells (ATCC, Manassas, Virginia) were transfected with the pcDNA3/hTRPM8 vector by electroporation (300 Volts, 950 µF) then selected with medium containing 0,8 mg/ml G418 for 10–15 days. Then the stable transfected pool underwent two rounds of limiting dilutions, in eight 96 well plates at a cell density of 1 cell/well, in order to obtain pure clones. The best responder clone was selected based on its response to 1 mM menthol in calcium mobilization experiments. HEK-293/hTRPM8 cells were maintained in EMEM (Minimum Essential Medium Eagle with Earl’s salts Balanced Salt Solution, LONZA) supplemented with 2 mM Ultraglutamine1 (Lonza), 1% Penicillin/Streptomycin (LONZA), 10% of Fetal Bovine Serum (Euroclone) and 0,4 mg/mL G418 (InvivoGen).\n(§1) For calcium mobilization assays, cells were seeded at 10,000 cells/well in 384-well plates coated with poly-D-lysine (MATRIX black/clear bottom #4332-CPL, Thermo Scientific, Waltham, MA, USA) in complete medium.Twenty-four hours after seeding, the plates were washed with Tyrode’s buffer with a Bio-Tek-ELx405 Microplate Washer (Merck Millipore; Billerica, MA, USA), and then 10 µl/well of a solution containing the fluorescent Ca^2+ indicator Fluo-4 NW dye was added. Cells were incubated for 1 h at room temperature before test compounds were added at 3X the concentration with respect to the final wanted concentration to be tested with a FLIPR TETRA system (Molecular Devices, Sunnyvale, CA, USA). Calcium mobilization was monitored over a period of 5 min. A second injection of 10 µl/well of a reference agonist (icilin or Cooling agent 10) at 4X concentration in assay buffer was performed using the FLIPR TETRA system. Of note, for selectivity assays, the following agonists were used: 10 μM AITC (allyl isothiocyanate) for TRPA1; 100 nM Capsaicin for TRPV1; and 20 nM GSK1016790A for TRPV4.\nAfter addition of the agonist, the fluorescence signal was recorded over the next 3 min. The bioactivity exerted by the compounds was expressed as a percentage of inhibition. The percentage scale is defined as follows: 100% inhibition was considered as the relative fluorescence units (RFUs) of the value of the MIN controls in the second injection (antagonist Capsazepine at IC100 = 50 µM) and 0% inhibition was considered as the RFU values of the value of the MAX controls in the second injection (Cooling agent 10 at EC80 = 30 µM). Data from four replicates were analyzed using GraphPad PRISM® software (version 5, GraphPad Software Inc.) to calculate the mean and standard error of the mean, to create sigmoidal concentration-response curves and to calculate IC50 values."}, "[2]": {"target": "T2, wt TRPM8 (Homo sapiens, UniProt Q7Z2W7)", "T2 construct": "expressed in transfected cells; host or cells: HEK-293, transient (Lipofectamine 2000)", "experiment": "Calcium mobilization on HEK-293 cells transiently transfected with wt myc-tagged TRPM8", "details": "icilin at EC80, wt; read-out: pIC50, inhibition of icilin activation, wt TRPM8 (converted)", "text": "(§2) Single point mutations were introduced in the hTRPM8-coding sequence, and the mutated TRPM8 was cloned as N-terminal c-myc tagged version into the pcDNA3 expression vector. This was done in that way that the single variations could be easily swapped from the myc-tagged expression construct into the non-tagged TRPM8 wild type expression construct.\nThe list of the variants is the following: variant 1, t2233g, a2234c (=Y745A); variant 2, a2236g, t2237c (=I746A); variant 3, a2395g, a2396c (=N799A) and variant 4, a2405c (D802A). The cloning project comprised three steps. First of all, a unique XhoI restriction site was inserted by site-directed mutagenesis (SDM) using DNA of the pcDNA3_TRPM8 construct as template. The 0.6 kb DNA fragment between the unique 5′ XhoI (introduced) and 3′ BamHI (already present) restriction sites comprised all positions of the four single point mutations and could be later used for their insertion as well as swapping between myc-tagged and non-tagged TRPM8 versions. […] The obtained data from at least four wells (as replicates) were analyzed with GraphPad PRISM® software (version 5, GraphPad Software Inc.) to calculate the mean and standard error of the mean[58], to create sigmoidal concentration-response curves and to calculate IC50 values."}, "[3]": {"target": "T3, TRPM8 I746A (Homo sapiens, UniProt Q7Z2W7, I746A)", "T3 construct": "expressed in transfected cells; host or cells: HEK-293, transient (Lipofectamine 2000)", "T3 sequence (Q7Z2W7 whole entry I746A)": "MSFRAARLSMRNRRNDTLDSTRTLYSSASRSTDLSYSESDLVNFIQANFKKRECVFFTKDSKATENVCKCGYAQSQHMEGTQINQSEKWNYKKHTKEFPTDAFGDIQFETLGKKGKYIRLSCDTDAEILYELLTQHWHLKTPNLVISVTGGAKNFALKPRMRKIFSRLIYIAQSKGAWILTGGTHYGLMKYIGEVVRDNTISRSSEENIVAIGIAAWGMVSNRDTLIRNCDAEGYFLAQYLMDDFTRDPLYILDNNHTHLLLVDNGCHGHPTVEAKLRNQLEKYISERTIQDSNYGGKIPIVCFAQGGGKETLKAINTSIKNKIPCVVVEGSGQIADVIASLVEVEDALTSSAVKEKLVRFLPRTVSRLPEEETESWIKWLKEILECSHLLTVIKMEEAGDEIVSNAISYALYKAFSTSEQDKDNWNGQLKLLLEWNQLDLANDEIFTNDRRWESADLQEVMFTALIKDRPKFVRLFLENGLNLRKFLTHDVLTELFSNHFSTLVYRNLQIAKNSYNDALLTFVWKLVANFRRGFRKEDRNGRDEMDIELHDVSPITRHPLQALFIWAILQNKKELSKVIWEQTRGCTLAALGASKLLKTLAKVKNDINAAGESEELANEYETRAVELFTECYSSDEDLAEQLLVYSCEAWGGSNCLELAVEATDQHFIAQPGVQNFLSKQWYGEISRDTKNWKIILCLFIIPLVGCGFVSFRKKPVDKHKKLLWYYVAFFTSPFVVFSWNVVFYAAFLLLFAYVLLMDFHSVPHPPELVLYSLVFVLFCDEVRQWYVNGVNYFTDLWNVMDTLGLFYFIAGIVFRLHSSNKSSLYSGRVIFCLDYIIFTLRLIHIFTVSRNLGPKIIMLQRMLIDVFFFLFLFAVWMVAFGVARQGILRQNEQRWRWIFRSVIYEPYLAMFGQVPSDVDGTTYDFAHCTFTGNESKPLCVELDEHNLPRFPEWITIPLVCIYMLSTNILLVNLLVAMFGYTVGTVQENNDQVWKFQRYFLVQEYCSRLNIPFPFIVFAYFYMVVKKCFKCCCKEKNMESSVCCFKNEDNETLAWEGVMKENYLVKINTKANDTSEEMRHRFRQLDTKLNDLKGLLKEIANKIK", "experiment": "Calcium mobilization on transiently transfected TRPM8 I746A mutant", "details": "icilin at EC80, I746A; read-out: pIC50, inhibition of icilin activation, I746A (converted)", "text": "as §2\n(§3) The list of the variants is the following: variant 1, t2233g, a2234c (=Y745A); variant 2, a2236g, t2237c (=I746A); variant 3, a2395g, a2396c (=N799A) and variant 4, a2405c (D802A). The cloning project comprised three steps. First of all, a unique XhoI restriction site was inserted by site-directed mutagenesis (SDM) using DNA of the pcDNA3_TRPM8 construct as template. The 0.6 kb DNA fragment between the unique 5′ XhoI (introduced) and 3′ BamHI (already present) restriction sites comprised all positions of the four single point mutations and could be later used for their insertion as well as swapping between myc-tagged and non-tagged TRPM8 versions. In a second step, the c-myc tag sequence was introduced embedded within the TRPM8 coding sequence by PCR primers in two partially overlapping PCRs that were then joined by bridge PCR with the external 5′KpnI and internal 3′EcoRI primers and in the last step the point mutations 1 to 4 were inserted into pcDNA3_c-myc-TRPM8 by exchanging the wild type 5′XhoI-3′BamHI fragment (0.6 kb) with each of the corresponding variation fragment derived from synthetic DNA (provided by GeneArt, ThermoFisher Scientific).The myc-tagged constructs were transiently transfected in HEK-293 cells with Lipofectamine 2000 (Invitrogen) according to the manufacturer’s protocol. The pcDNA vectors containing the wt myc-tagged TRPM8 gene and the empty pcDNA3 (mock) were separately transfected into HEK-293 cells as controls. Cells were transfected and seeded on the same day at 17,500 cells/well in poly-D-lysine-coated 384-well plates (MATRIX #4332-CPL). Twenty-four hours after seeding, the activity of transfected TRPM8 receptors was tested using the calcium mobilization assay as described above. The analysis was performed on the basis of ΔF/F° (normalized MAX-MIN), where ΔF is the MAX between time points 117 and 182 minus the MIN between time points TP114 and TP116, and F° is the basal signal at time point TP0. The obtained data from at least four wells (as replicates) were analyzed with GraphPad PRISM® software (version 5, GraphPad Software Inc.) to calculate the mean and standard error of the mean[58], to create sigmoidal concentration-response curves and to calculate IC50 values."}, "[4]": {"target": "T4, TRPM8 N799A (Homo sapiens, UniProt Q7Z2W7, N799A)", "T4 construct": "expressed in transfected cells; host or cells: HEK-293, transient (Lipofectamine 2000)", "T4 sequence (Q7Z2W7 whole entry N799A)": "as the sequence (Q7Z2W7 whole entry I746A) above, with A746I, N799A counted along it", "experiment": "Calcium mobilization on transiently transfected TRPM8 N799A mutant", "details": "Cooling agent 10 at EC80, N799A; read-out: pIC50, inhibition of Cooling agent 10 activation, N799A (converted)", "text": "as §2, §3"}, "[5]": {"target": "TRPA1 (Homo sapiens, UniProt O75762)", "sequence (O75762 whole entry, species assumed)": "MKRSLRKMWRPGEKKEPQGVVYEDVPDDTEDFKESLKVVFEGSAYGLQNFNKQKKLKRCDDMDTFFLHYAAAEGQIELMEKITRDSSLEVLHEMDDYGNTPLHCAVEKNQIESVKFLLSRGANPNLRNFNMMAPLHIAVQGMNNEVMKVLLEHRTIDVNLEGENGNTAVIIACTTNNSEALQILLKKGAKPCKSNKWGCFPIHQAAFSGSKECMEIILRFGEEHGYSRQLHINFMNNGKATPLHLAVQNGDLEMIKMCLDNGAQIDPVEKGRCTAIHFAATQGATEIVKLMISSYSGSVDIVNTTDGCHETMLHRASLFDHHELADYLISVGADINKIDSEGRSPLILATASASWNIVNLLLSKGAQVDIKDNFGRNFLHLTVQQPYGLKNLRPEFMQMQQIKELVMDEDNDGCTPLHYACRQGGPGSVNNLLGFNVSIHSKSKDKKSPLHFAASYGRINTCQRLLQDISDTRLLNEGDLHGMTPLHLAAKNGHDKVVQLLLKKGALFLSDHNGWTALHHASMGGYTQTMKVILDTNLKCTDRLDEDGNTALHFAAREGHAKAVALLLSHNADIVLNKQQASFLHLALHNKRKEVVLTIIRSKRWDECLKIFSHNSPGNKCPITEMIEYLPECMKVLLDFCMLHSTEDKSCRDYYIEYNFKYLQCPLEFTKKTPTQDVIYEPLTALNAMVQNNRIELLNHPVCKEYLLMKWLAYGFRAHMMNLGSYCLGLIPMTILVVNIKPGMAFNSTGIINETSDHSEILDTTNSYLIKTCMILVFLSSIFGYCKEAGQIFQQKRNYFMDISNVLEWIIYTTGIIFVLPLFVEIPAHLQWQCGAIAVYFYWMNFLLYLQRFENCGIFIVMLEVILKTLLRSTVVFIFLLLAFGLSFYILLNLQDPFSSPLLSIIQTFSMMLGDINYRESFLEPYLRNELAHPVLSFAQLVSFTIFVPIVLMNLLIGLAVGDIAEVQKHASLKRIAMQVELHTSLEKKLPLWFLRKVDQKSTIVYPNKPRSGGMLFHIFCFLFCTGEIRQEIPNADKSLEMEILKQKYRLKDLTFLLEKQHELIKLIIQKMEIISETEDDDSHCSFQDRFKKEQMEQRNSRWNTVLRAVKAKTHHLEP", "experiment": "Selectivity calcium mobilization assay, TRPA1", "details": "agonist 10 μM AITC", "protocol": "as §1"}, "[6]": {"target": "TRPV1 (Homo sapiens, UniProt Q8NER1)", "sequence (Q8NER1 whole entry, species assumed)": "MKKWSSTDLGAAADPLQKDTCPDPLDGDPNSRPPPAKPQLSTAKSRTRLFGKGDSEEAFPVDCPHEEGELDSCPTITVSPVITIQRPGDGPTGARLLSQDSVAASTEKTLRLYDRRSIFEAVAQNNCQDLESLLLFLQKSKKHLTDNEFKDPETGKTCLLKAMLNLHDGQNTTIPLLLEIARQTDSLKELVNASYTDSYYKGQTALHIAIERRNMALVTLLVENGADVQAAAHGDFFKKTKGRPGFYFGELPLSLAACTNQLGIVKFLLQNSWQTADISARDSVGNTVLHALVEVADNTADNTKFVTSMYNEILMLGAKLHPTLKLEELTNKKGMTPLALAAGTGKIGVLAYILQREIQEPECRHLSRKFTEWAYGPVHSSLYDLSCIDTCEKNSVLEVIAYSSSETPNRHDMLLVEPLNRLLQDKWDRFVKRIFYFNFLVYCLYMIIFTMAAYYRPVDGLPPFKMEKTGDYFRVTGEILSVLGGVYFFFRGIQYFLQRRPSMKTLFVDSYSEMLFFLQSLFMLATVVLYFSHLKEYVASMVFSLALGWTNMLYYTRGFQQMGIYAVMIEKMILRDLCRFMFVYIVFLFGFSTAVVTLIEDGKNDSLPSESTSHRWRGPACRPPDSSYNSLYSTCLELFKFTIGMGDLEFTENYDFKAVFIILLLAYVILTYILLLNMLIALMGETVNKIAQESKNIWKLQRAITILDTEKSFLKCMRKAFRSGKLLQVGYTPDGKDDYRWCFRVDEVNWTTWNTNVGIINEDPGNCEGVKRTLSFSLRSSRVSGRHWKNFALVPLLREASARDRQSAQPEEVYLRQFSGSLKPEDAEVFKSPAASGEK", "experiment": "Selectivity calcium mobilization assay, TRPV1", "details": "agonist 100 nM Capsaicin", "protocol": "as §1"}, "[7]": {"target": "T1, TRPM8", "experiment": "Schild regression versus icilin", "details": "data not shown", "protocol": "Compound 1 was also tested in schild regression experiments[65] and compared with icilin and cooling agent (data not shown) to better characterize its mechanism of action. In these experiments, seven points for dose-response curves with icilin at seven different concentrations were analyzed."}}, "note": "Entries after “also recorded” stand apart in the source; their conditions may differ. Read-outs that look alike come from different tables or passages of the source.", "data": [{"compound": "Clc1c(OCCNCc2ccco2)ccc2ccccc12", "note": "[Compound 1]", "values": [{"measurement": "pIC50", "setting": "[1]; HTS campaign activity determination, Fig. 4", "value": 7.15}, {"measurement": "IC50", "setting": "[1]; agonist Cooling agent 10, read-out: pIC50 with Cooling agent 10 (converted)", "value": 41.7, "unit": "nM"}, {"measurement": "IC50", "setting": "[1]; agonist icilin, read-out: pIC50 with icilin (converted)", "value": 58.9, "unit": "nM"}, {"measurement": "IC50", "setting": "[2]", "value": 63.1, "unit": "nM"}, {"measurement": "IC50", "setting": "[3]", "value": 20, "unit": "nM"}, {"measurement": "IC50", "setting": "[4]", "value": 10, "unit": "nM"}, {"measurement": "Activity on TRPA1", "setting": "[5]", "value": "completely inactive; also recorded: didn’t have any effect"}, {"measurement": "Activity on TRPV1", "setting": "[6]", "value": "completely inactive; also recorded: didn’t have any effect"}, {"measurement": "Binding mechanism by Schild regression", "setting": "[7]", "value": "orthosteric binding mechanism"}]}]}
